Experimental data as given in article PMC12217461 (Antimicrobial Agents and Chemotherapy, 2025).

Columns and labels:
Format in all cases: cell-based
E. coli TOP10 = assay: microbe, parasite or virus in culture; conditions: Escherichia coli, no MBL, TAN/XER fixed at 4 µg/mL, XER 8 µg/mL in MEM-XER, read-out: Minimal inhibitory concentration
Text: (§1) Genes encoding different acquired IMP-like enzymes suspected to be resistant to XER (blaIMP-6, blaIMP-7, blaIMP-10, blaIMP-14, blaIMP-26, blaIMP-34, and blaIMP-59) were amplified by PCR, and corresponding amplicons were cloned into plasmid pUCP24 and expressed in E. coli TOP10. The following recombinant E. coli strains producing IMP-1, IMP-4, IMP-19, and NDM-1 were used from a previous study ([16]). […] For that purpose, a list of primers was designed and provided as Table S1. […] The nomenclature used in this study was according to the BBL sequence numbering ([52]).
(§2) To assess the inhibitory potency of XER, susceptibility testing was performed by broth microdilution method, determining the minimal inhibitory concentrations (MICs) of different antibiotics or antibiotic plus β-lactamase inhibitor combinations, including cefepime (FEP), imipenem (IPM), meropenem (MEM), and their combinations with XER (FEP-XER, IPM-XER, and MEM-XER). All data obtained with XER-based combinations were compared with data with TAN-based combinations, FEP-TAN, IPM-TAN, and MEM-TAN ([16]). FEP was purchased from Sigma-Aldrich (Saint-Louis, USA), whereas MEM was from HuiChem (Shanghai, China). […] MICs were determined in triplicate in cation-adjusted Mueller-Hinton (MH) broth (Bio-Rad, Marnes-la-Coquette, France) according to the CLSI guidelines ([53]). The results were interpreted according to the decrease in MIC value for the same antibiotic or combination of the corresponding recombinant strain producing the MBL enzyme. […] In a recent phase I clinical evaluation, XER was combined with cefiderocol. However, as this latter β-lactam substrate is known to be poorly hydrolyzed by IMP enzymes, it was not considered for the evaluation of XER inhibitory activity in this study. Instead, carbapenems were used as a substrate to evaluate the β-lactamase IMP activity in the presence or absence of XER and TAN, as it was deemed more specific for the IMP carbapenemase activity.

E. coli IMP-2 = assay: MIC broth microdilution, recombinant E. coli; conditions: Escherichia coli, IMP2; IMP-2-like; TAN/XER fixed at 4 µg/mL, XER 8 µg/mL in MEM-XER; read-out: Minimal inhibitory concentration
[1] = tested on: E. coli IMP-14 Mutant 3 (N178S); assay: MIC broth microdilution, recombinant E. coli; conditions: Escherichia coli; IMP-14 N178S; TAN/XER fixed at 4 µg/mL, XER 8 µg/mL in MEM-XER; read-out: Minimal inhibitory concentration
Text: as §1, §2

E. coli IMP-10 = assay: MIC broth microdilution, recombinant E. coli; conditions: Escherichia coli, IMP10; IMP-1-like, V67F; TAN/XER fixed at 4 µg/mL, XER 8 µg/mL in MEM-XER; read-out: Minimal inhibitory concentration
Text: as §1, §2

E. coli IMP-59 = assay: MIC broth microdilution, recombinant E. coli; conditions: Escherichia coli, IMP59; IMP-4 like, N233Y; TAN/XER fixed at 4 µg/mL, XER 8 µg/mL in MEM-XER; read-out: Minimal inhibitory concentration
Text: as §1, §2

E. coli IMP-14 = assay: MIC broth microdilution, recombinant E. coli; conditions: Escherichia coli, IMP14; IMP-2-like, multiple substitutions; TAN/XER fixed at 4 µg/mL, XER 8 µg/mL in MEM-XER; read-out: Minimal inhibitory concentration
Text: as §1, §2

E. coli NDM-1 = assay: MIC broth microdilution, recombinant E. coli; conditions: Escherichia coli, NDM1; NDM-1-like; TAN/XER fixed at 4 µg/mL, XER 8 µg/mL in MEM-XER; read-out: Minimal inhibitory concentration
Text: as §1, §2

E. coli IMP-1 = assay: MIC broth microdilution, recombinant E. coli; conditions: Escherichia coli, IMP1; IMP-1-like; TAN/XER fixed at 4 µg/mL, XER 8 µg/mL in MEM-XER; read-out: Minimal inhibitory concentration
Text: as §1, §2

E. coli IMP-26 = assay: MIC broth microdilution, recombinant E. coli; conditions: Escherichia coli, IMP26; IMP-4 like, V67F; TAN/XER fixed at 4 µg/mL, XER 8 µg/mL in MEM-XER; read-out: Minimal inhibitory concentration
Text: as §1, §2

E. coli NDM-1* (S262G) = assay: MIC broth microdilution, recombinant E. coli; conditions: Escherichia coli, TAN/XER fixed at 4 µg/mL, XER 8 µg/mL in MEM-XER, read-out: Minimal inhibitory concentration
Text: as §1, §2

[2] = tested on: E. coli IMP-14 Mutant 4 (D227Y); assay: MIC broth microdilution, recombinant E. coli; conditions: Escherichia coli; IMP-14 D227Y; TAN/XER fixed at 4 µg/mL, XER 8 µg/mL in MEM-XER; read-out: Minimal inhibitory concentration
Text: as §1, §2

[3] = tested on: E. coli IMP-14 Mutant 1 (S65G); assay: MIC broth microdilution, recombinant E. coli; conditions: Escherichia coli; IMP-14 S65G; TAN/XER fixed at 4 µg/mL, XER 8 µg/mL in MEM-XER; read-out: Minimal inhibitory concentration
Text: as §1, §2

[4] = tested on: E. coli IMP-14 Mutant 2 (H174N); assay: MIC broth microdilution, recombinant E. coli; conditions: Escherichia coli; IMP-14 H174N; TAN/XER fixed at 4 µg/mL, XER 8 µg/mL in MEM-XER; read-out: Minimal inhibitory concentration
Text: as §1, §2

[5] = tested on: E. coli IMP-14 Mutant 5 (Y233N); assay: MIC broth microdilution, recombinant E. coli; conditions: Escherichia coli; IMP-14 Y233N; TAN/XER fixed at 4 µg/mL, XER 8 µg/mL in MEM-XER; read-out: Minimal inhibitory concentration
Text: as §1, §2

E. coli IMP-4 = assay: MIC broth microdilution, recombinant E. coli; conditions: Escherichia coli, IMP4; IMP-4 like; TAN/XER fixed at 4 µg/mL, XER 8 µg/mL in MEM-XER; read-out: Minimal inhibitory concentration
Text: as §1, §2

E. coli IMP-6 = assay: MIC broth microdilution, recombinant E. coli; conditions: Escherichia coli, IMP6; IMP-1-like, S262G; TAN/XER fixed at 4 µg/mL, XER 8 µg/mL in MEM-XER; read-out: Minimal inhibitory concentration
Text: as §1, §2

Row | SMILES | MIC (E. coli TOP10) [mg/L] | MIC (E. coli IMP-2) [mg/L] | MIC [1] [mg/L] | MIC (E. coli IMP-10) [mg/L] | MIC (E. coli IMP-59) [mg/L] | MIC (E. coli IMP-14) [mg/L] | MIC (E. coli NDM-1) [mg/L] | MIC (E. coli IMP-1) [mg/L] | MIC (E. coli IMP-26) [mg/L] | MIC (E. coli NDM-1* (S262G)) [mg/L] | MIC [2] [mg/L] | MIC [3] [mg/L] | MIC [4] [mg/L] | MIC [5] [mg/L] | MIC (E. coli IMP-4) [mg/L] | MIC (E. coli IMP-6) [mg/L]
1 | C[C@@H](O)[C@H]1C(=O)N2C(C(=O)O)=C(S[C@@H]3CN[C@H](C(=O)N(C)C)C3)[C@H](C)[C@H]12 [MEM, meropenem] | ≤ 0.25 | 1 | 8 | 64 | 8 | 4 | 2 | 8 | 128 | 32 | 8 | 8 | 4 | 1 | 8 | 64
2 | C[C@@H](O)[C@H]1C(=O)N2C(C(=O)O)=C(SCCN=CN)C[C@H]12 [IPM, imipenem] | ≤ 0.25 | 0.5 | 2 | 16 | 0.5 | 1 | 2 | 4 | 8 | 0.25 | 8 | 8 | 2 | 32 | 1 | ≤ 0.25
3 | CO/N=C(\C(=O)N[C@@H]1C(=O)N2C(C(=O)[O-])=C(C[N+]3(C)CCCC3)CS[C@H]12)c1csc(N)n1 [FEP, cefepime] | ≤ 0.25 | 8 | 128 | 64 | 8 | 64 | 4 | 32 | 32 | 1 | 128 | 128 | 64 | 16 | 8 | 4
